What all share (format): biochemical
One experiment concerns Duramyl. Briefly: Organic Catalyst/Enzyme Compatibility Test (alpha amylase activity assay), Duramyl. The conditions noted are these: (Ac/Ab)x100; [Peracetic Acid]=5.0 ppm; [organic catalyst]=0.5 ppm; 40° C.; sample at 7 minutes 45 seconds.
A further experiment concerns Natalase. Briefly: Organic Catalyst/Enzyme Compatibility Test (alpha amylase activity assay), Natalase. The following applies: (Ac/Ab)x100; [Peracetic Acid]=5.0 ppm; [organic catalyst]=0.5 ppm; 40° C.; sample at 7 minutes 45 seconds.
Experiment [1] deals with Termamyl, Duramyl and Natalase. Briefly: Organic Catalyst/Enzyme Compatibility Test, average of the three enzymes. The following applies: ECV=(ECVter+ECVdur+ECVnat)/3; [Peracetic Acid]=5.0 ppm; [organic catalyst]=0.5 ppm.

As to “Sulfuric acid mono-[2-(3,4-dihydro-isoquinolin-2-yl)-1-(2-butyloctyloxymethyl)-ethyl]ester, internal salt [Entry 4]”, the “Enzyme Compatibility Values ECVdur” value in the experiment on Duramyl was 101. For the same substance, the “Enzyme Compatibility Values ECVnat” value in the experiment with Natalase is reported as 102. Further, the “Enzyme Compatibility Values ECV” value in experiment [1] is 101.

As to “Sulfuric acid mono-[2-(3,4-dihydro-isoquinolin-2-yl)-1-(2-propylheptyloxymethyl)-ethyl]ester, internal salt [Entry 3]”, in the experiment with Duramyl, the “Enzyme Compatibility Values ECVdur” value was 101. The “Enzyme Compatibility Values ECVnat” value in the experiment with Natalase was determined as 99. In addition, the “Enzyme Compatibility Values ECV” value in experiment [1] is reported as 99.

Source of the values: patent publication US20100223737A1, “ORGANIC CATALYST WITH ENHANCED ENZYME COMPATIBLITY” (priority 2009, published 2010).
